Test results: patent EP3266784A1, “PROTEIN ARGININE N-METHYLTRANSFERASES INHIBITORS AND USES THEREOF” (PIERRE FABRE MEDICAMENT, priority 2016, dated 2018)

Assays:
Type in all cases: biochemical
human PRMT1 enzyme = human PRMT1 enzyme (Homo sapiens, UniProt Q99873); test: PRMT1 inhibition assay (radioactive [3H]SAM methyl transfer, filter binding); settings: compound at 100µM, 700 nM [3H]SAM, 50 nM Histone H4 full length, 20 min at 22°C; for inhibition at 100 µM: read-out: PRMT1 100µM, percent inhibition of the control enzyme activity
Chain of human PRMT1 enzyme (Q99873 whole entry): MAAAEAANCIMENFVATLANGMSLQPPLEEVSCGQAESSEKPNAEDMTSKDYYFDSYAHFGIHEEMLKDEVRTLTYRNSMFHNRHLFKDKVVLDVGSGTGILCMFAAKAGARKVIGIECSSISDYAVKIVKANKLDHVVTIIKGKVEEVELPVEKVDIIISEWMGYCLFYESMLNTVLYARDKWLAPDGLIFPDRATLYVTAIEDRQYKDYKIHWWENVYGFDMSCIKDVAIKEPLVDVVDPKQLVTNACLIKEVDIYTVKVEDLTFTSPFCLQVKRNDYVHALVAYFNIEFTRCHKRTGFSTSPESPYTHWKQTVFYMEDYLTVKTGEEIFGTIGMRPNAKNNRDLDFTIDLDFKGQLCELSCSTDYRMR
Method: (§1) The inhibitory effect of compounds on the methyltransferase activity of human PRMT was evaluated via the measurement of its capacity to transfer methyl groups in a radioactivity assay.
The test compound, reference compound, or water (control) were incubated for 20 min at 22°C with 20 ng human PRMT1 enzyme, 700 nM [^3H]SAM and 50 nM Histone H4 full length in a buffer containing 45 mM Tris-HCl (pH 8), 4.5 mM MgCl2, 45 mM NaCl and 3.6 mM DTT.
(§2) For control basal measurements, the enzyme is omitted from the reaction mixture. Following incubation, the reaction is stopped by adding 33 mM citric acid and the samples are filtered rapidly under vacuum through glass fiber filters (GF/B, Packard) presoaked with 33 mM citric acid and rinsed several times with ice-cold 33 mM citric acid using a 96-sample cell harvester (Unifilter, Packard). The filters are dried then counted for radioactivity in a scintillation counter (Topcount, Packard) using a scintillation cocktail (Microscint 0, Packard).
The results are expressed as a percent inhibition of the control enzyme activity. The standard reference compound is SAH, which is tested in each experiment at several concentrations to obtain a competition curve from which its IC50 is calculated (Cheng et al., 2004, J. Biol. Chem. 279:23892).

human PRMT6 enzyme = human PRMT6 enzyme (Homo sapiens, UniProt Q96LA8); test: PRMT6 inhibition assay (radioactive [3H]SAM methyl transfer, filter binding); settings: 120 nM [3H]SAM, 25 nM Histone H3 full length, 120 min at 22°C; for inhibition at 10 µM: compound at 10µM, read-out: PRMT6 10µM, percent inhibition of the control enzyme activity; for inhibition at 100 µM: read-out: PRMT6 100µM, percent inhibition of the control enzyme activity
Chain of human PRMT6 enzyme (Q96LA8 whole entry): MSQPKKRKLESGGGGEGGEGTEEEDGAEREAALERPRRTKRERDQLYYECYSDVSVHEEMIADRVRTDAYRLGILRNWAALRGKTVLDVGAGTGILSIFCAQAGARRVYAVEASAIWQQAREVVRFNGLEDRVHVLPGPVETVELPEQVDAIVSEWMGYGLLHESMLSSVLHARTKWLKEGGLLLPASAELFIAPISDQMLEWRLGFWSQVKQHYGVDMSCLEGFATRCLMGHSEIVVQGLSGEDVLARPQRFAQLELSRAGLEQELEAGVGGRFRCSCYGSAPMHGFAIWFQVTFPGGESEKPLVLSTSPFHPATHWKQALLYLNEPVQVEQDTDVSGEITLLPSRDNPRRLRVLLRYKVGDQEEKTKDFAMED
Method: as §1
The test compound, reference compound, or water (control) were incubated for 120 min at 22°C with 10 ng human PRMT6 enzyme, 120 nM [^3H]SAM and 25 nM Histone H3 full length in a buffer containing 45 mM Tris-HCl (pH 8), 45 mM NaCl, 4.5 mM MgCl2 and 3.6 mM DTT.
as §2
The results are expressed as a percent inhibition of the control enzyme activity. The standard reference compound is SAH, which is tested in each experiment at several concentrations to obtain a competition curve from which its IC50 is calculated. (lberg et al., 2007, J. Biol. Chem., 283: 3006).

human PRMT4 enzyme = molecular target: T1, human PRMT4 enzyme (Homo sapiens, UniProt Q86X55); test: PRMT4 inhibition assay (radioactive [3H]SAM methyl transfer, filter binding); settings: 60 nM [3H]SAM, 25 nM Histone H3 full length, 1 h at 22°C; for IC50: read-out: PRMT4/CARM1 IC50; for inhibition at 10 µM: read-out: PRMT4/CARM1 10µM, percent inhibition of the control enzyme activity; for inhibition at 100 µM: read-out: PRMT4/CARM1 100µM, percent inhibition of the control enzyme activity
T1 sequence (Q86X55 1-608): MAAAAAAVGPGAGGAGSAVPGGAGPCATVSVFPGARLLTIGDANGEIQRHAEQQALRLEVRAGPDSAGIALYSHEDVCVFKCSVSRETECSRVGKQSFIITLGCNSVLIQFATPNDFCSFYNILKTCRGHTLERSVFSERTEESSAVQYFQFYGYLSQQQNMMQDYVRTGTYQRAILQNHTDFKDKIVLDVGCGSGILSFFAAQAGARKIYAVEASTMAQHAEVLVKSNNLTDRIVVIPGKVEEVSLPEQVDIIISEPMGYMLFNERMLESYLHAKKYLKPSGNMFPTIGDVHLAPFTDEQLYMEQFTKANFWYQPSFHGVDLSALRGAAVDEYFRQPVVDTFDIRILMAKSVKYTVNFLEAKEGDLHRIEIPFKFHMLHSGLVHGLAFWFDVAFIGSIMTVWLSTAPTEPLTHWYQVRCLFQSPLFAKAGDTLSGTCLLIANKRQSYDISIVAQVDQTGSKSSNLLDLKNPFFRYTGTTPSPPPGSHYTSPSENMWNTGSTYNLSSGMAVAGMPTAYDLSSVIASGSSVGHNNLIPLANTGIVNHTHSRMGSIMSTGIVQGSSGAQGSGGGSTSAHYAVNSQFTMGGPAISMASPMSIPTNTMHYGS
Method: as §1
The test compound, reference compound, or water (control) were incubated for 1 h at 22°C with 2.5 ng human PRMT4 enzyme, 60 nM [^3H]SAM and 25 nM Histone H3 full length in a buffer containing 45 mM Tris-HCl (pH 8), 45 mM NaCl, 4.5 mM MgCl2 and 3.6 mM DTT.
as §2
(§3) The results are expressed as a percent inhibition of the control enzyme activity. The standard reference compound is SAH, which is tested in each experiment at several concentrations to obtain a competition curve from which its IC50 is calculated (Selvi et al., 2010, J. Biol. Chem., 285: 7143).

human PRMT7 enzyme = molecular target: T2, human PRMT7 enzyme (Homo sapiens, UniProt Q9NVM4); test: PRMT7 inhibition assay (radioactive [3H]SAM methyl transfer, filter binding); settings: 250 nM [3H]SAM, 4 nM Histone H2B (21-41) biotin labelled, 90 min at 22°C; for inhibition at 10 µM: read-out: PRMT7 10µM, percent inhibition of the control enzyme activity; for inhibition at 100 µM: read-out: PRMT7 100µM, percent inhibition of the control enzyme activity
T2 sequence (Q9NVM4 1-692): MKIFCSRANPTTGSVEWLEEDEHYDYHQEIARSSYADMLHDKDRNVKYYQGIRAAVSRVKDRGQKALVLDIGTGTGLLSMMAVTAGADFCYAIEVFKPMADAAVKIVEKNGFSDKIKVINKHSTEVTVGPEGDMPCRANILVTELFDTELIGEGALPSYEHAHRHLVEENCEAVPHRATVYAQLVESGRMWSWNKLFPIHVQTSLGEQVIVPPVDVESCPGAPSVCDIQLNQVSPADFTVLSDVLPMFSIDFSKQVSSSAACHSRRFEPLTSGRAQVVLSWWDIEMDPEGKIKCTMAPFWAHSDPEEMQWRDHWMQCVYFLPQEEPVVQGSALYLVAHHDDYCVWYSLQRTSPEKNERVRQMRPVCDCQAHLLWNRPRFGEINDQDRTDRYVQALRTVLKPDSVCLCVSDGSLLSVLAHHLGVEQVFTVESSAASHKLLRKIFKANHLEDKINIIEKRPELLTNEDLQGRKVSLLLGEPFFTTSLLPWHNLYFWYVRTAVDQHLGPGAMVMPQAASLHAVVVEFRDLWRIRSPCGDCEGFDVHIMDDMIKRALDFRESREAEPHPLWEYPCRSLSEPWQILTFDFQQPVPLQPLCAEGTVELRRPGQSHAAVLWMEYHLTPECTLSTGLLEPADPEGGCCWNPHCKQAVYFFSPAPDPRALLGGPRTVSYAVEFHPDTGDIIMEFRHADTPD
Method: as §1
The test compound, reference compound, or water (control) were incubated for 90 min at 22°C with 12.5 ng human PRMT7 enzyme, 250 nM [^3H]SAM and 4 nM Histone H2B (21-41) biotin labelled in a buffer containing 45 mM Tris-HCl (pH 8.7), 0.0045% Tween20, 0.009% HSA and 0.9 mM DTT.
as §2
as §3, with “(Zurita-Lopez” for “(Selvi”, “2012,” for “2010,”, “287(11):7859).” for “285: 7143).”

| Compound | IC50 (human PRMT4 enzyme) [µM] | inhibition at 10 µM (human PRMT4 enzyme; compound at 10µM) [%] | inhibition at 100 µM (human PRMT1 enzyme) [%] | inhibition at 10 µM (human PRMT6 enzyme) [%] | inhibition at 100 µM (human PRMT6 enzyme; compound at 100µM) [%] | inhibition at 100 µM (human PRMT4 enzyme; compound at 100µM) [%] | inhibition at 10 µM (human PRMT7 enzyme; compound at 10µM) [%] | inhibition at 100 µM (human PRMT7 enzyme; compound at 100µM) [%] | also measured |
| --- | --- | --- | --- | --- | --- | --- | --- | --- | --- |
| 1-(methoxymethyl)-5-(N-(5'-deoxyadenosin-5'-yl)aminomethyl)cytosine | 1.9 |  |  |  |  |  |  |  | PRMT1 100µM, percent inhibition of the control enzyme activity (human PRMT1 enzyme): 13%; PRMT6 100µM, percent inhibition of the control enzyme activity (human PRMT6 enzyme; compound at 100µM): 20%; PRMT4/CARM1 10µM, percent inhibition of the control enzyme activity (human PRMT4 enzyme; compound at 10µM): 81%; PRMT4/CARM1 100µM, percent inhibition of the control enzyme activity (human PRMT4 enzyme; compound at 100µM): 99%; PRMT7 10µM, percent inhibition of the control enzyme activity (human PRMT7 enzyme; compound at 10µM): 33%; PRMT7 100µM, percent inhibition of the control enzyme activity (human PRMT7 enzyme; compound at 100µM): 89% |
| COCn1cc(CN(CCC(N)C(=O)O)CC2OC(n3cnc4c(N)ncnc43)C(O)C2O)c(N)nc1=O (centres unmarked) [Compound B] |  | 21 | 24 | 3 | 61 | 59 | 30 | 81 |  |
| COCn1cc(CNC[C@H]2O[C@@H](n3cnc4c(N)ncnc43)[C@H](O)[C@@H]2O)c(N)nc1=O [Compound A, 1-(methoxymethyl)-5-(N-(5'-deoxyadenosin-5'-yl)aminomethyl)cytosine 5'-deoxy-5'-((1-(methoxymethyl)cytosin-5-yl)methylamino)adenosine] |  |  |  |  |  | 21 |  | 12 |  |

Further lines, with some results ahead:

| IC50 (human PRMT4 enzyme) [µM] | inhibition at 10 µM (human PRMT4 enzyme; compound at 10µM) [%] | inhibition at 100 µM (human PRMT1 enzyme) [%] | inhibition at 10 µM (human PRMT6 enzyme) [%] | inhibition at 100 µM (human PRMT6 enzyme; compound at 100µM) [%] | inhibition at 100 µM (human PRMT4 enzyme; compound at 100µM) [%] | inhibition at 10 µM (human PRMT7 enzyme; compound at 10µM) [%] | inhibition at 100 µM (human PRMT7 enzyme; compound at 100µM) [%] | Compound | also measured |
| --- | --- | --- | --- | --- | --- | --- | --- | --- | --- |
|  | 35 |  |  |  |  |  |  | Nc1nc(=O)n(CCOc2ccccc2)cc1CNCCC1OC(n2cnc3c(N)ncnc32)C(O)C1O (centres unmarked) [E, 5'-deoxy-5'-(N-((1-(2-(4-phenoxy)ethyl)-cytosin-5-yl)methyl)-aminomethyl) adenosine] |  |
| 14 | 54 | 42 | 8 | 47 | 88 | 46 | 83 | COCn1cc(CN(CCC(N)C(=O)O)CCC2OC(n3cnc4c(N)ncnc43)C(O)C2O)c(N)nc1=O (centres unmarked) [D] |  |
|  | 43 |  |  |  |  |  |  | Nc1nc(=O)n(CCOc2ccc(Br)cc2)cc1CNCC[C@H]1O[C@@H](n2cnc3c(N)ncnc32)[C@H](O)[C@@H]1O [F, 5'-deoxy-5'-(N-((1-(2-(4-bromophenoxy)ethyl)-cytosin-5-yl)methyl)-aminomethyl) adenosine] |  |
